In ChEMBL document CHEMBL1201862, “PubChem BioAssay data set” (2004):
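Cells were grown in 96-well plates and exposed to each compound for 48 hours at five concentrations; endpoints were interpolated linearly between bracketing concentrations, or set to the highest concentration if not reached. GI50 = concentration required for 50% inhibition of growth.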 Calls of active or inactive are those of the source. Cut-off read from the data, not from the text of the source: active = GI50 up to about 1.1 µM and inactive = higher.

Tests used:
Assay in all cases: NCI tumour cell line growth inhibition, 48 h
MDA-MB-435 = system: MDA-MB-435
MDA-MB-231 = system: MDA-MB-231
SW-620 = system: SW-620
DU-145 = system: DU-145
UO-31 = system: UO-31
SR = system: SR
A549 = system: A549
NCI-H522 = system: NCI-H522
OVCAR-3 = system: OVCAR-3
UACC-62 = system: UACC-62
PC-3 = system: PC-3
SN12C = system: SN12C
HOP-62 = system: HOP-62
OVCAR-5 = system: OVCAR-5
NCI-H23 = system: NCI-H23
M14 = system: M14
MCF7 = system: MCF7
HCT-15 = system: HCT-15
SK-MEL-5 = system: SK-MEL-5
EKVX = system: EKVX

Compound | GI50 (MDA-MB-435) | GI50 (MDA-MB-231) | GI50 (SW-620) | GI50 (DU-145) | GI50 (UO-31) | GI50 (SR) | GI50 (A549) | GI50 (NCI-H522) | GI50 (OVCAR-3) | GI50 (UACC-62) | GI50 (PC-3) | GI50 (SN12C) | GI50 (HOP-62) | GI50 (OVCAR-5) | GI50 (NCI-H23) | GI50 (M14) | GI50 (MCF7) | GI50 (HCT-15) [µM] | GI50 (SK-MEL-5) | GI50 (EKVX)
O=C(CCCn1ccnc1[N+](=O)[O-])NCCn1ccnc1 | > 100 µM (inactive) | > 100 µM (inactive) | > 100 µM (inactive) | > 100 µM (inactive) | > 100 µM (inactive) | > 100 µM (inactive) | > 100 µM (inactive) | > 100 µM (inactive) | > 100 µM (inactive) | > 100 µM (inactive) | > 100 µM (inactive) | > 100 µM (inactive) | > 100 µM (inactive) | > 100 µM (inactive) | > 100 µM (inactive) | > 100 µM (inactive) | > 100 µM (inactive) | > 100 | > 100 µM (inactive) | 
COC(=O)[C@@H]1[C@@H]2NC(=S)N[C@@]1(C)Oc1ccccc12 | 10.1 µM (inactive) | 74.6 µM (inactive) | 55.7 µM (inactive) | 36.3 µM (inactive) | > 100 µM (inactive) | 95.3 µM (inactive) |  | 31.6 µM (inactive) | > 100 µM (inactive) | 78.3 µM (inactive) | 63.5 µM (inactive) | 46.2 µM (inactive) | 89.3 µM (inactive) | 60.4 µM (inactive) | 42.6 µM (inactive) | 42.8 µM (inactive) | 45.7 µM (inactive) | 32.1 | 42 µM (inactive) | 52.5 µM (inactive)
Cc1ccc([N+](=O)[O-])cc1S(=O)(=O)Nc1ccc(C2=NN(C(=O)c3ccccc3)C(c3ccccc3O)C2)cc1 (centres undefined) | 31.2 µM (inactive) | 15.7 µM (inactive) | 30.9 µM (inactive) | 20.2 µM (inactive) | 16.6 µM (inactive) | 21.2 µM (inactive) | 19.1 µM (inactive) | 12.6 µM (inactive) | 17 µM (inactive) |  | 13.2 µM (inactive) | 13.5 µM (inactive) | 25.3 µM (inactive) | 19.7 µM (inactive) | 17.1 µM (inactive) | 16.3 µM (inactive) | 13.4 µM (inactive) | 13.2 | 15.8 µM (inactive) | 12.6 µM (inactive)
O=c1[nH]c(=O)n(C2CC(O)C(CO)O2)cc1OCc1ccccc1 (centres undefined) | > 100 µM (inactive) | > 100 µM (inactive) |  | > 100 µM (inactive) | > 100 µM (inactive) | > 100 µM (inactive) | > 100 µM (inactive) | > 100 µM (inactive) | > 100 µM (inactive) | > 100 µM (inactive) | > 100 µM (inactive) | > 100 µM (inactive) | > 100 µM (inactive) | > 100 µM (inactive) | > 100 µM (inactive) | > 100 µM (inactive) | > 100 µM (inactive) | > 100 | > 100 µM (inactive) | > 100 µM (inactive)
Nc1nc(Nc2ccc(Cl)cc2)sc1C(=O)c1cccs1 | > 100 µM (inactive) | 40 µM (inactive) | 59 µM (inactive) | 78.9 µM (inactive) | 17 µM (inactive) | 2.4 µM (inactive) | 27.9 µM (inactive) |  | 5.57 µM (inactive) | > 100 µM (inactive) | > 100 µM (inactive) | 21 µM (inactive) | 25.6 µM (inactive) | > 100 µM (inactive) | 29.2 µM (inactive) | > 100 µM (inactive) | 33.4 µM (inactive) | > 100 | 38.2 µM (inactive) | 20 µM (inactive)
NC(CCCCNC(=O)CNC(=O)OCc1ccccc1)C(=O)NC(CCCCNC(=O)CNC(=O)OCc1ccccc1)C(=O)NC(CCCCNC(=O)CNC(=O)OCc1ccccc1)C(=O)NC(CCCCNC(=O)CNC(=O)OCc1ccccc1)C(=O)NC(CCCCNC(=O)CNC(=O)OCc1ccccc1)C(=O)NC(CCCCNC(=O)CNC(=O)OCc1ccccc1)C(=O)O (centres undefined) | > 75 µM (inactive) | > 75 µM (inactive) | > 75 µM (inactive) | > 75 µM (inactive) | > 75 µM (inactive) | > 75 µM (inactive) | > 75 µM (inactive) | 16.9 µM (inactive) | > 75 µM (inactive) | > 75 µM (inactive) | > 75 µM (inactive) | > 75 µM (inactive) | > 75 µM (inactive) | > 75 µM (inactive) | > 75 µM (inactive) | > 75 µM (inactive) | > 75 µM (inactive) | > 75 | > 75 µM (inactive) | 
COc1ccc2c(-c3ccc(O)cc3)c(Oc3ccccc3)c(=O)oc2c1 | > 100 µM (inactive) | 18.8 µM (inactive) |  | 4.58 µM (inactive) | 3.13 µM (inactive) | 3.24 µM (inactive) | 8.17 µM (inactive) | 8.2 µM (inactive) | 5.4 µM (inactive) | > 24.4 µM (inactive) | > 66.5 µM (inactive) |  | 31.1 µM (inactive) | > 24.4 µM (inactive) | 2.63 µM (inactive) | > 100 µM (inactive) | 4.61 µM (inactive) | 5.04 | 3.95 µM (inactive) | 4.89 µM (inactive)
COc1cc(S(=O)(=O)Nc2nc(-c3ccc(N4C(=O)/C(=C\c5cccs5)N=C4c4ccccc4)cc3)cs2)ccc1Cl | 55.6 µM (inactive) | 29.8 µM (inactive) | > 100 µM (inactive) | > 100 µM (inactive) | > 100 µM (inactive) | 39.5 µM (inactive) | > 100 µM (inactive) | 29.4 µM (inactive) | > 100 µM (inactive) | 25.3 µM (inactive) | 66.8 µM (inactive) | 58.5 µM (inactive) | > 100 µM (inactive) | > 100 µM (inactive) | 34.8 µM (inactive) | > 100 µM (inactive) | 40 µM (inactive) | > 100 | 43.2 µM (inactive) | 
CCNC(=S)N/N=C/c1cc([N+](=O)[O-])ccc1O | 37.2 µM (inactive) | 33 µM (inactive) | 40.5 µM (inactive) | 83.4 µM (inactive) | 22.3 µM (inactive) | 10.9 µM (inactive) | 33.4 µM (inactive) | 21.5 µM (inactive) |  | 17.5 µM (inactive) | 28.3 µM (inactive) | 31.5 µM (inactive) | 32.7 µM (inactive) | > 100 µM (inactive) | 41.6 µM (inactive) | 33.7 µM (inactive) | 0.307 µM (active) | 11.6 | 10.9 µM (inactive) | 30.4 µM (inactive)
O=C1NC(=O)C(c2c[nH]c3ccccc23)=C1c1cn(C(c2ccccc2)(c2ccccc2)c2ccccc2)cn1 | 3.92 µM (inactive) | 12.8 µM (inactive) | 8.81 µM (inactive) | 19.6 µM (inactive) |  | 2.7 µM (inactive) | 3.14 µM (inactive) | 8.75 µM (inactive) | 6.76 µM (inactive) | 12.5 µM (inactive) | 2.58 µM (inactive) | 5.7 µM (inactive) |  | 8.73 µM (inactive) | 6.35 µM (inactive) | 4.76 µM (inactive) | 3.05 µM (inactive) | 3.66 | 7.57 µM (inactive) | 4.19 µM (inactive)
COc1cc2c(cc1OC)C1CCc3ccccc3CN1CC2 (centres undefined) | > 100 µM (inactive) | > 100 µM (inactive) | > 100 µM (inactive) | > 100 µM (inactive) |  | > 100 µM (inactive) | > 100 µM (inactive) | > 100 µM (inactive) | > 100 µM (inactive) | > 100 µM (inactive) | > 100 µM (inactive) | > 100 µM (inactive) | > 100 µM (inactive) | > 100 µM (inactive) | > 100 µM (inactive) | > 100 µM (inactive) | > 100 µM (inactive) | > 100 | > 100 µM (inactive) | > 100 µM (inactive)
C=C(Br)C(Br)(CCl)CCC(Cl)C(C)C.C=C(Cl)C(Br)(CCl)CCC(Cl)C(C)C (centres undefined) | 1.93 µM (inactive) | 1.24 µM (inactive) | 1.53 µM (inactive) | 1.65 µM (inactive) | 1.63 µM (inactive) | 0.442 µM (active) | 14.8 µM (inactive) | 1.35 µM (inactive) | 2.29 µM (inactive) | 1.31 µM (inactive) | 2.91 µM (inactive) | 1.66 µM (inactive) | 2.21 µM (inactive) | 2.84 µM (inactive) | 1.79 µM (inactive) | 1.89 µM (inactive) | 1.94 µM (inactive) |  | 1.82 µM (inactive) | 15.8 µM (inactive)
CC(=O)NC1C(OCc2ccccc2)OC(CO)C(O)C1OC(C)C(=O)NC(C(=O)NC(CCC(=O)NCCCC(=O)Nc1ccc2c(c1)CN1C(=O)c3ccccc3C1=N2)C(N)=O)C(C)C (centres undefined) | > 100 µM (inactive) | > 100 µM (inactive) | > 100 µM (inactive) | > 100 µM (inactive) | > 100 µM (inactive) | > 100 µM (inactive) | > 100 µM (inactive) |  | > 100 µM (inactive) | > 100 µM (inactive) | > 100 µM (inactive) | > 100 µM (inactive) | > 100 µM (inactive) | > 100 µM (inactive) | > 100 µM (inactive) | > 100 µM (inactive) | > 100 µM (inactive) | > 100 | > 100 µM (inactive) | > 100 µM (inactive)
COC(=O)[C@H](Cc1ccccc1)NC(=O)CCCCCCC(=O)NO | 13.5 µM (inactive) | 21.6 µM (inactive) | 11.6 µM (inactive) | 7.23 µM (inactive) | 33.4 µM (inactive) | 4.89 µM (inactive) | 44.5 µM (inactive) | 4.68 µM (inactive) | 10.7 µM (inactive) | 11.5 µM (inactive) | 8.79 µM (inactive) | > 100 µM (inactive) |  | 4.18 µM (inactive) | 26.4 µM (inactive) | 20.9 µM (inactive) | 46.1 µM (inactive) | 56.4 | 8.91 µM (inactive) | > 100 µM (inactive)
